Experimental data reported in patent EP3693740A1, “IMPROVED DITHIOCARMABATE BASED COMPOUNDS, THERAPIES AND DIAGNOSTICS” (Deutsches Krebsforschungszentrum, Stiftung des öffentlichen …, priority 2019, dated 2020).

What was measured:
[1] = system: peroxides (most likely H2O2); experiment: Peroxide quantification with ROS Glo probe (boronate-caged luciferin precursor); format: cell-based
From the text: Gold(I) complexes have been previously reported to induce pro-oxidative effects in tumour cells.

[2] = biological target: T1, TRXR1 (Homo sapiens, UniProt Q16881)
[3] = system: roGFP2-Orp1; experiment: Oxidation of the genetically encoded H2O2 probe roGFP2-Orp1 (cytoplasmic and mitochondrial); format: cell-based; settings: for reversibility of probe oxidation: concentrations below the EC50 of DKFZ-608
[4] = system: SCLC; experiment: SCLC animal model, residual tumour cells after first line therapy; format: in vivo
From the text: In context of the herein disclosed invention it was discovered, that thioredoxin reductase 1 (TRXR1), when inhibited competitively, is a promising drug target for SCLC. DKFZ-608, a homoleptic dithiocarbamate gold complex, reversibly binds TRXR1 in competition with the TRXR1 substrate thioredoxin-1 (TRX1). Consequently, cells expressing low levels of TRX1, like SCLC, are hypersensitive to DKFZ-608, while cells, which express higher levels of TRX1, are resistant. DKFZ-608 causes oxidative stress in the cytoplasm, but not in mitochondria, further contributing to its low toxicity profile.

[5] = biological target: T1, TRXR1; settings: inhibitors pre-incubated with TRXR1 before addition of TRX1
From the text: The mode of inhibition was further characterized by investigating the effect of substrate competition.

[6] = biological target: T1, TRXR1; remark: listed apart in the source
[7] = biological target: T1, TRXR1; remark: listed apart in the source
[8] = system: SCLC cell line H209; experiment: Induction of apoptotic cell death; format: cell-based
From the text: Treatment with DKFZ-608 caused morphological changes of the nucleus reminiscent of apoptosis (Figure 1A). […] The inventors then investigated the possible involvement of apoptotic mechanisms in the SCLC cell line H209. […] It was also investigated whether alternative cell death mechanisms like ferroptosis, necroptosis or entosis contribute to the cytotoxicity of DKFZ-608 on SCLC. Inhibitors of those cell death programs were, however, not able to desensitize SCLC cells.

[9] = biological target: truncated form of TRXR1, lacking the Sec (TRXR1ΔSec) (Homo sapiens, UniProt Q16881)
From the text: The present invention will now be further described in the following examples with reference to the accompanying figures and sequences, nevertheless, without being limited thereto. For the purposes of the present invention, all references as cited herein are incorporated by reference in their entireties.

T1 sequence (Q16881 151-649 limits assumed): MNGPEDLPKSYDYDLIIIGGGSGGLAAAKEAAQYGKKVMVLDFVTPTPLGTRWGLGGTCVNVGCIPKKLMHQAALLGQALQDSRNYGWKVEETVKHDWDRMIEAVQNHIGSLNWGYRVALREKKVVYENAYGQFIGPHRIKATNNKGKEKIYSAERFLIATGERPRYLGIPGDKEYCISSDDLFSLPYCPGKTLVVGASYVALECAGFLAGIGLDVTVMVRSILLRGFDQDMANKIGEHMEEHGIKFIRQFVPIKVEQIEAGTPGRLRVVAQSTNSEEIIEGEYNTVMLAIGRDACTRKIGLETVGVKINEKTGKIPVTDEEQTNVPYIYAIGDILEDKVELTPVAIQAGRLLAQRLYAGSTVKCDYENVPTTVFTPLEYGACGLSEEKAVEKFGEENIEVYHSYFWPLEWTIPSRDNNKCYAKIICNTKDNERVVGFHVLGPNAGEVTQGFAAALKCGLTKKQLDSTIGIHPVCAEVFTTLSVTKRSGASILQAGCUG
Sequence of truncated form of TRXR1, lacking the Sec (TRXR1ΔSec) (Q16881 151-647 limits assumed, stated change not applied): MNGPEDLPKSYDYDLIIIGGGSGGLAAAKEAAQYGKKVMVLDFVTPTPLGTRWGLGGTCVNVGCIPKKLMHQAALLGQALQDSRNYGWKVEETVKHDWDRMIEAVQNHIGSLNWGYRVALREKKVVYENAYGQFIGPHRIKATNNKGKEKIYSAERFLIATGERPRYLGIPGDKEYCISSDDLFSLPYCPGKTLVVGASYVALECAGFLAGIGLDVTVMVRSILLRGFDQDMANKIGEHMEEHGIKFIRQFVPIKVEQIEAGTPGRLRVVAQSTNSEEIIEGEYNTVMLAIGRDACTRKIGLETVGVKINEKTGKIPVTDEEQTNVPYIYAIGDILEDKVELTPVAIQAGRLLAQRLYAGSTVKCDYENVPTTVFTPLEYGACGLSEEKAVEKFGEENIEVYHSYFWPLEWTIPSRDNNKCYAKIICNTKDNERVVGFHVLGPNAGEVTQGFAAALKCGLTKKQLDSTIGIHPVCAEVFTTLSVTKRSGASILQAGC

Compound	increase of peroxides [1]	enzymatic activity after dilution of a sample containing TRXR1 and a high concentration of inhibitor [2]	reversibility of probe oxidation [3]	oxidation of the mitochondrial roGFP2-Orp1 probe [3]	tumour recurrence [4]	effect of increasing amounts of TRX1 on enzyme inhibition [5]	effect of DTNB substrate increase on dose response curve [6]	TRXR1 inhibition in cells ([7]; H209 versus A549, TRXR1 inhibition after 100min)	dose response curves upon induced overexpression of TRX1 ([7]; SCLC line H69)	cytotoxic effect in presence of pan-Caspase inhibitor ([8]; H209)	Annexin-V positive cells and late apoptotic cells ([8]; data not shown)	inhibition of TRXR1ΔSec [9]
CCN(CC)C1=[S+][Au-][S]C(N(CC)CC)=[S+][Au-][S]1 [DKFZ-608]	induced fast and strong increase of peroxides	resulted in recovery of enzymatic activity	appears to be reversible	did not cause oxidation of the mitochondrial probe	completely prevents tumour recurrence	increasing amounts of TRX1 reduced enzyme inhibition	right-shift of the dose response curve	more potent inhibition of TRXR1 in the SCLC line H209 as compared to the NSCLC line A549	rightshift of the dose response curves of cytotoxicity and TRXR1 inhibition	could be reverted by the pan-Caspase inhibitor z-VAD-FMK	increases the amount of Annexin-V positive cells and late apoptotic cells	not inhibited
CC[P+](CC)(CC)[Au-][S][C@@H]1O[C@H](COC(C)=O)[C@@H](OC(C)=O)[C@H](OC(C)=O)[C@H]1OC(C)=O [auranofin, reference compound]	induced fast and strong increase of peroxides	this was not the case	remains stable	produces the same fast and pronounced increase in probe oxidation as in the cytoplasm	–	an effect not observed	showed no affect with increasing DTNB concentrations	–	–	–	–	able to repress the activity of the truncated enzyme, although to a lesser extent
